Measurements from a melting point compilation (Tetko et al.; mined from patent text by program, amines drawn as free bases though some values may be those of a salt).

`CC(=O)C(=O)c1ccc(NS(C)(=O)=O)c(Sc2ccc(F)cc2F)c1` showed a melting point of 108 to 109 °C. Work on `CCOC(=O)Oc1ccc(C=CC(=O)N2CCN(CC(=O)N3CCCC3)CC2)cc1` yielded a melting point of 128 to 130 °C. Work on `OCc1cc2c(Cl)ccc(Br)c2s1` yielded a melting point of 141 to 143 °C. `Cc1cc(-n2ccc(OCc3ccccc3)cc2=O)sc1C(=O)NCc1cccnc1` showed a melting point of 165 to 167 °C. Compound `Nc1n[nH]c(-c2cc(Cl)nc(Cl)c2)n1` has a melting point of 240 to 250 °C. For `NC(=NOC(=O)c1ccccc1)c1nc(Cl)c(Cl)[nH]1`, the melting point was 177 to 178 °C. In the case of `Cn1cc(CO)c2c3c(c(-c4ccccc4Cl)cc21)C(=O)NC3=O`, the melting point is reported as 270 to 274 °C. Work on `CCOC(=O)c1nc(-c2ccc(F)cc2)[nH]c1N=NN(C)C` yielded a melting point of 177 °C. Work on `NC(=O)c1cccc2c1OC(F)(F)O2` yielded a melting point of 130 to 131 °C. For `N#CN=C(N)NCCCCNC(=O)C1(NC(=O)CCCC(=O)O)Cc2ccccc2C1`, the melting point was 105 °C. `CN(C(=O)c1ccc2nonc2c1)C1CCN(C(=O)OC(C)(C)C)CC1` showed a melting point of 98 to 100 °C. In the case of `CCOc1cc(Oc2ncc(Cl)cn2)ccc1[N+](=O)[O-]`, the melting point is reported as 114 to 115 °C. For `O=c1[nH]c(Cl)nc2ccccc12`, the melting point was 251 to 252 °C. `CC1(C)C(=O)Oc2ccc3cc(C(=O)O)c(Cn4cncn4)cc3c21` gave a melting point of 262 to 265 °C. With `CCOC(=O)[C@@H]1C[C@H](OS(=O)(=O)c2ccc(C)cc2)CN1C(=O)OCc1ccccc1` the melting point was 91 to 92 °C. With `CCCc1cccc2sc(Sc3ccc4c(c3)CC[C@H]3N(C)C(=O)CC[C@]43C)nc12` the melting point was 109 to 111 °C. Work on `CCOc1ccc(C2(N)NC(Nc3ccc4c(c3)OCCO4)=NC=C2F)cc1` (stereo unspecified) yielded a melting point of 164 to 167 °C. For `NS(=O)(=O)c1ccc(-c2noc(-c3cnn4c(C(F)(F)F)cc(-c5cccc(C(F)(F)F)c5)nc34)n2)cc1`, the melting point was 300 °C. For `CC(C)Oc1cc(-c2[nH]c3cn[nH]c(=O)c3c2Cl)ccc1OC(F)F`, the melting point was 248 to 262 °C. For `Cc1cc2c(cc1C(=O)O)CCC(CCN1CCCC1)=C2`, the melting point was 258 to 259 °C. In the case of `O=c1c2c(n(-c3ccccc3)c3c1CCc1cc(O)ccc1-3)NCCC2`, the melting point is reported as over 330 °C. In the case of `COc1ccccc1Oc1c(O)nc(SC)nc1O`, the melting point is reported as 206 to 210 °C. With `O=C(O)CCCCCCNS(=O)(=O)c1ccccc1` the melting point was 75 to 77 °C. `Cc1oc(-c2ccco2)nc1COc1ccc(COc2nn(-c3ccccc3)cc2CO)cc1` showed a melting point of 113 to 114 °C. `CC(C(=O)N(C)C)n1ccc(-c2cc(Cl)ccc2Cl)n1` (stereo unspecified) gave a melting point of 73.5 to 76.5 °C. For `CC(Cc1ccc(Cl)c(OC(F)(F)C(F)F)c1)NC(=O)C1C2=C(C=CC1(O)c1ccc(F)cc1)CCCC=C2` (stereo unspecified), the melting point was 174 to 175 °C. `C=CCN1C(=O)COc2ccc(C3CC(=O)C(C(CC)=NOCC)=C(O)C3)cc21` (stereo unspecified) gave a melting point of 79 to 83 °C. In the case of `S=C(Cc1ccccc1)c1ccccc1`, the melting point is reported as 52 to 53 °C. With `COc1cccc(C(O)CN(C)Cc2cc3c(=O)c(C(=O)NCc4ccc(Cl)cc4)cn(C)c3o2)c1` (stereo unspecified) the melting point was 116 to 120 °C. With `CCOc1ccc(C2=NNC(=O)[C@H]3CC=CC[C@@H]23)cc1OCC` (relative stereo) the melting point was 145 to 147 °C. `CC(C)(C)OC(=O)C(=[N+]=[N-])C(=O)COCc1ccccc1` gave a melting point of 68 °C. For `O=C(c1cccc(Nc2ncnc3ccccc23)c1)N1CCN(c2ncc(Cc3ccccc3)cn2)CC1`, the melting point was 120 to 122 °C. `N#CC(=O)c1cccc(Cl)c1` gave a melting point of 146 to 148 °C. Work on `CN(Cc1cccc(-c2ccc(CC3SC(=O)NC3=O)cc2)c1)C(=O)c1ccc(O)cc1` (stereo unspecified) yielded a melting point of 110 °C. Work on `CC1(CO)CCC2(CC1)OCCO2` yielded a melting point of 42 to 43 °C. `Cn1c(=O)n(Cc2ccccc2)c(=O)c2cc(C(=O)OCc3ccccc3)sc21` showed a melting point of 143 to 145 °C. For `COC(=O)N1C(C(=O)O)CSC1c1ccccc1` (stereo unspecified), the melting point was 129 to 130 °C. In the case of `CC1(O)CCC2(C)C(CCC3C2CCC2(C)C(c4cn5ccccc5n4)CCC32)C1` (stereo unspecified), the melting point is reported as 225 to 226 °C. In the case of `C[Si](C)(C)OC(C(N)=O)(C(N)=O)c1ccc(Cl)c(Cl)c1`, the melting point is reported as 156 °C. `Cn1c2c(c3cccc(OCc4ccccc4)c31)C(=O)NCC2` gave a melting point of 199 to 201 °C. `COc1nc(N)c(Cl)cc1C(=O)CCC1CCN(CC(O)C(C)(C)C)CC1` (stereo unspecified) gave a melting point of 134 °C. `COc1cc(CCCN(C)Cc2ccc(OC)c(OC)c2)ccc1NC(=O)c1cccc2c(=O)c3cccc(F)c3[nH]c12` gave a melting point of 170 to 190 °C. Work on `CC(C)(C)c1ccc(-c2nc(COCCc3cccc(NS(=O)(=O)C(F)(F)F)c3)cs2)cc1` yielded a melting point of 110 to 112 °C. `O=C1CCc2c(F)cc(F)cc2C1` gave a melting point of 46 °C. In the case of `CCCCOc1c(CNC(=O)OC(C)(C)C)n(CC(C)C)c(=O)c2ccc(C#N)cc12`, the melting point is reported as 126 to 127 °C. `Cc1cccc(NC(=O)n2nc(Oc3cccc(C(F)(F)F)c3)cc2C)c1` gave a melting point of 47 to 49 °C. With `Cc1ccc2c(ccn2C)c1O` the melting point was 68 °C. `O=C1CC2(CCCC2)CC(=O)N1c1ccncc1` showed a melting point of 208 to 211 °C. For `CCOC(Nc1ccccc1)(OCC)C1(Cl)C=CN=C(C(=O)c2ccccc2)C1` (stereo unspecified), the melting point was 133 to 134 °C. `CCCCS(=O)CCCNc1cc2oc(=O)[nH]c2cc1F` (stereo unspecified) gave a melting point of 116 to 117 °C. With `O=C(NC(c1ccccc1)C(O)c1ccccc1)OCc1ccccc1` (stereo unspecified) the melting point was 152 °C. Compound `CCOC(=O)CCC(=O)c1cnc2c(OC)cccc2c1NCc1ccccc1` has a melting point of 201 to 202 °C. With `COC(=O)OCC1OC(n2cc(C)c(=O)[nH]c2=O)C(OC(=O)c2cccc(C(F)(F)F)c2)C1OS(C)(=O)=O` (stereo unspecified) the melting point was 94 to 96 °C. `COc1cc(C(=O)N2Cc3ccc(C(=O)NCCC(c4ccccc4)c4ccccc4)n3Cc3ccccc32)ccc1-c1ccccc1C` showed a melting point of 214 °C. For `CCc1nc2c(N)nc3cc(OCc4ccccc4)ccc3c2s1`, the melting point was 208 to 209 °C. Work on `O[C@@H](CNCCOc1ccc2sc(-c3ncon3)cc2c1)COc1ccccc1` yielded a melting point of 101 to 102 °C. `OC(CCN1CCN(c2ccccn2)CC1)COc1cccc(C(F)(F)F)c1` (stereo unspecified) gave a melting point of 81 to 81.5 °C. Work on `COC(=O)C1=C(NC(=O)Nc2ccccc2)CSC1` yielded a melting point of 182 to 184 °C. With `CC(C)(C)OC(=O)C(Cc1ccc(Cl)cc1)N=C(c1ccccc1)c1ccccc1` (stereo unspecified) the melting point was 102 to 103 °C. In the case of `O=C(NOCCNc1ccccc1)c1ccc(F)c(F)c1Nc1ccc(I)cc1Cl`, the melting point is reported as 158 °C. With `Cc1cc2c(cc1Oc1ccc(C(=O)O)cc1)C(C)(C)CCC2(C)C` the melting point was 208 to 210 °C. For `C=CCOc1ccccc1-c1ncc(C#N)c(=O)[nH]1`, the melting point was 162 to 164 °C. With `Cc1c(OCCSCc2ccco2)ccnc1CNc1ncncc1Cl` the melting point was 129 to 130 °C. `O=C(CC1CCCCC1=O)c1ccc([N+](=O)[O-])cc1` (stereo unspecified) showed a melting point of 61 to 63 °C. `COc1ccc(-c2cc(OC)c(OC)cc2[N+](=O)[O-])cc1OC` gave a melting point of 149 to 151 °C. With `Cc1nn(C)c(C)c1-c1cccc(OC2SCC(O)C(O)C2O)c1` (stereo unspecified) the melting point was 95 °C. With `CCCCNC(=O)c1ccco1` the melting point was 43.8 °C. `N#CCc1ccccc1Sc1ccc(Cl)c(Cl)c1` gave a melting point of 48 to 49 °C. `CCc1cn2ccccc2c1S(=O)(=O)c1ccc(OCCCN(C)C(C)c2ccc(OC)c(OC)c2)cc1` (stereo unspecified) showed a melting point of 78 to 80 °C. In the case of `Cc1cc(-c2cc(Cl)n(C)n2)c(C)[nH]1`, the melting point is reported as 59 to 61 °C. With `CCOCc1nc2c(N)nc3cccnc3c2n1CC(C)(C)NC(=O)C1CCCCC1` the melting point was 210 to 211 °C.
